Assay results as given in US20250180508A1, “QUANTITATIVE LIPIDOMIC ANALYSIS, METHODS AND USES THEREOF” (McMaster University, priority 2023, published 2025).
“And” between values parts separate entries of the source, which are not always exact repeats. Equal values may be shown once. Read-outs that look alike come from different tables or passages of the source.

Tests used:
[1] = Pooled sub-group untargeted serum lipid profiling by MSI-NACE-MS, high-dose FO supplementation vs placebo/baseline; conditions: pooled serum extracts; for Fold-change (average fold-change in ion response for serum lipid following FO supplementation to baseline): high-dose FO (EPA 3 g/day + DHA 2 g/day) vs baseline, underivatized, negative ion mode; for Change in serum lipid response following FO supplementation (in words): high-dose FO vs baseline/placebo, MSI-NACE-MS positive or negative ion mode
Description: (§1) In the first discovery cohort, fasting serum samples were collected from participants in a randomized, double-blinded, placebo-controlled intervention study that investigated the effects of FO supplementation on attenuating skeletal muscle disuse atrophy following leg immobilization (84). […] Briefly, this study comprised a cohort of healthy young women with a mean age of 22 years (range: 19-31 years) and BMI of 24 kg/m^2 (range: 18-26 kg/m^2) recruited locally from the Hamilton area. All participants received either a high-dose FO (3.0 g EPA and 2.0 g DHA daily; n=9) or a placebo control based on an isoenergetic and volume equivalent sunflower oil (SO) daily (n=9). Repeat fasting serum samples were collected from participants at baseline and after 28, 42 and 56 days of the intervention. All serum samples were then stored frozen at −80° C.
(§2) Fasting serum and plasma samples were subject to a two-step chemical derivatization protocol using 9-fluorenylmethyoxycarbonyl chloride (FMOC) and 3-methyl-1-p-tolyltriazene (FMOC/MTT) as described in example 1. This reaction was introduced as a more convenient alternative to diazomethane to improve separation resolution and ionization efficiency by converting zwitter-ionic PL species that co-migrate close to the electroosmotic flow (EOF) into methylated phosphatidylcholines (PCs) and sphingomyelins (SMs) with a permanent positive charge. Briefly, in a glass sample vial, a 50 μL aliquot of serum/plasma sample was subject to a methyl-tert-butyl ether (MTBE) extraction, where 100 μL of methanol with 0.01% vol of BHT as antioxidant, and PC 16:0[D62] as internal standard were first added, and samples then mixed to induce protein precipitation. Next, 250 μL of MTBE was added and mixed prior to adding 100 μL of deionized water to induce phase separation. Samples were then centrifuged at 4000 g at 4° C. where then 200 μL of the organic layer was transferred into a new glass vial and dried down. Next, 100 μL of 0.85 mmol/L FMOC in chloroform containing PC 18:0[D70] as a second internal standard was added to dried serum/plasma extracts and mixed for 5 min at room temperature before drying down again. Next, 50 μL of MTBE containing 450 mmol/L of MTT was added to the glass vial with the lid sealed with Teflon tape. This vessel was then heated to 60° C. for 60 min.

[2] = Targeted plasma PC analysis by MSI-NACE-MS in placebo-controlled EPA or DHA (~3 g/day) trial over 90 days; type: in vivo, human; conditions: change in plasma PC 36:5 + PC 38:6 from baseline, mean ± standard deviation
Description: This study was approved by the Research Ethics Board at the University of Guelph. Participant characteristics (sex, age, BMI etc.) and blood draws for O3I assessment were obtained for all participants (n=83) on study day visits. Purified EPA (KD-PUR EPA700TG) and DHA (KD-PUR DHA700TG) oils, as well as OO, were obtained from KD Pharma (Bexbach, Germany) with EPA and DHA in their triglyceride forms. […] All capsules contained 0.20% vol. tocopherol to prevent oxidation of polyunsaturated lipids. Exclusion criteria included use of FO supplements within the previous 3 months, >2 servings of fish/seafood or other omega-3 FA-rich products per week, prescribed medication use (except oral contraceptives), current smoking and history of cardiovascular disease. Participants were assigned via block randomization with stratification by sex to one of three treatment arms, namely OO supplement (n=27), EPA supplement (n=28) and DHA supplement (n=28). Participants were instructed to maintain regular exercise and dietary habits throughout the study. After overnight fasts, participants were subject to blood sampling at the Human Nutraceutical Research Unit at the University of Guelph before (baseline) and after (endpoint) of the 90-day intervention period. Blood was collected into EDTA-treated vacutainers was used to isolate plasma and erythrocytes. Samples were separated by centrifugation at 700×g at 4° C. for 15 min. […] In this case, the O3I was calculated by taking the sum of EPA and DHA relative to the sum of 15 saturated, monosaturated and polyunsaturated FAs in fasting plasma samples.
(positive ion mode) or FA 14:0[D27]

[3] = Omega-3 index (O3I) from erythrocyte PL FAMEs by GC-FID, EPA or DHA trial; type: in vivo, human; conditions: for O3I (Post): 90-day period; for Average O3I status after supplementation: high-dose intake, after 90 days, both sexes
Description: This study was approved by the Research Ethics Board at the University of Guelph. Participant characteristics (sex, age, BMI etc.) and blood draws for O3I assessment were obtained for all participants (n=83) on study day visits. Purified EPA (KD-PUR EPA700TG) and DHA (KD-PUR DHA700TG) oils, as well as OO, were obtained from KD Pharma (Bexbach, Germany) with EPA and DHA in their triglyceride forms. The FA content of these supplements was previously reported to be 75.7%±0.01% for oleic acid (18:1) in the OO supplement, 74.7%±0.09% EPA and 0.55%±0.01% DHA in the EPA supplement, and 72.3%±1.3% DHA and 1.05+0.11% EPA in the DHA supplement (91). All capsules contained 0.20% vol. tocopherol to prevent oxidation of polyunsaturated lipids. Exclusion criteria included use of FO supplements within the previous 3 months, >2 servings of fish/seafood or other omega-3 FA-rich products per week, prescribed medication use (except oral contraceptives), current smoking and history of cardiovascular disease. Participants were assigned via block randomization with stratification by sex to one of three treatment arms, namely OO supplement (n=27), EPA supplement (n=28) and DHA supplement (n=28). Participants were instructed to maintain regular exercise and dietary habits throughout the study. After overnight fasts, participants were subject to blood sampling at the Human Nutraceutical Research Unit at the University of Guelph before (baseline) and after (endpoint) of the 90-day intervention period. Blood was collected into EDTA-treated vacutainers was used to isolate plasma and erythrocytes. Samples were separated by centrifugation at 700×g at 4° C. for 15 min. A similar protocol was performed for FAME analysis from erythrocyte PL extracts following fractionation and saponification using GC-FID with normalization to heptadecanoic acid as internal standard (92). In this case, the O3I was calculated by taking the sum of EPA and DHA relative to the sum of 15 saturated, monosaturated and polyunsaturated FAs in fasting plasma samples.

[4] = in vivo
Description: as §1, §2

[5] = change from baseline, 3.0 g/day, in %
[6] = change in erythrocyte PL membrane derived O3I from baseline, females (F), mean ± standard deviation
[7] = change in erythrocyte PL membrane derived O3I from baseline, males (M), mean ± standard deviation
[8] = difference in O3I status from baseline, similar dose of EPA or DHA

CCCCCCCC/C=C\CCCCCCCC(=O)O [FA 18:1, oleic acid]
Fold-change (average fold-change in ion response for serum lipid following FO supplementation to baseline) [1]: 0.83

CCCCCCCCCCCC(=O)O [FA 12:0]
Fold-change (average fold-change in ion response for serum lipid following FO supplementation to baseline) [1]: 0.86

CC/C=C\C/C=C\C/C=C\C/C=C\C/C=C\C/C=C\CCC(=O)O [DHA, docosahexaenoic acid]
Δ(PC 36:5 + PC 38:6) ([2]; females (F)): 26.11 ± 16.15 | Δ(PC 36:5 + PC 38:6) ([2]; males (M)): 25.80 ± 20.88 | Greater increase in O3I from baseline (relative efficacy) as compared to EPA ([3]; DHA vs EPA at the same dose level): 63% and 64% | O3I (Post) ([3]; Female, 3.0 g/day): 8.04 ± 1.34 | O3I (Post) ([3]; Male, 3.0 g/day): 8.73 ± 0.97 | ΔO3I [3, 5]: 4.90 ± 1.33 | ΔO3I [3, 6]: 4.31 ± 1.26 | ΔO3I [3, 7]: 5.57 ± 1.10 | ΔO3I [3, 8]: 4.90±1.33% | Average O3I status after supplementation [3]: 6.49±1.17% | Change in serum lipid response following FO supplementation (in words) [4]: more modest increase

CCCCCCCCCCCCCC(=O)O [FA 14:0]
Fold-change (average fold-change in ion response for serum lipid following FO supplementation to baseline) [1]: 0.60

CCCCCCCCCCCCCCCCC(=O)O [FA 17:0]
Fold-change (average fold-change in ion response for serum lipid following FO supplementation to baseline) [1]: 0.85

CCCCCCCCCCCCCCCCCC(=O)O [FA 18:0, stearic acid]
Fold-change (average fold-change in ion response for serum lipid following FO supplementation to baseline) [1]: 0.82

CC/C=C\C/C=C\C/C=C\C/C=C\C/C=C\CCCC(=O)O [EPA, eicosapentaenoic acid]
Δ(PC 36:5 + PC 38:6) ([2]; females (F)): 33.71 ± 16.15 | Δ(PC 36:5 + PC 38:6) ([2]; males (M)): 19.30 ± 14.26 | O3I (Post) ([3]; Female, 3.0 g/day): 6.75 ± 1.20 | O3I (Post) ([3]; Male, 3.0 g/day): 6.23 ± 1.10 | ΔO3I [3, 5]: 2.99 ± 1.19 | ΔO3I [3, 6]: 3.14 ± 1.25 | ΔO3I [3, 7]: 2.83 ± 1.14 | ΔO3I [3, 8]: 2.99 ± 1.19% | Average O3I status after supplementation [3]: 8.30±1.21% | Fold-change (average fold-change in ion response for serum lipid following FO supplementation to baseline) [1]: 4.16 | Change in serum lipid response following FO supplementation (in words) [1]: more modest increase

CCCCCCCCCCCCCCC(=O)O [FA 15:0]
Fold-change (average fold-change in ion response for serum lipid following FO supplementation to baseline) [1]: 0.85

PE 38:5
Fold-change (average fold-change in ion response for serum lipid following FO supplementation to baseline) [1]: 0.49 | Change in serum lipid response following FO supplementation (in words) [1]: did not exhibit increases

docasapentaenoic acid [FA 22:5]
Fold-change (average fold-change in ion response for serum lipid following FO supplementation to baseline) [1]: 0.57 | Change in serum lipid response following FO supplementation (in words) [1]: did not respond to supplementation
